Measurements as given in patent US5712269A, “M2 receptor ligand for the treatment of neurological disorders” (Pharmaceutical Discovery Corporation, priority 1995, dated 1998).
“Also recorded” adds a separate entry of the source.

What was measured:
[1] = partition coefficient between 1-octanol and 0.1M phosphate; format: physicochemical; settings: 1-octanol / 0.1M phosphate
mice [2] = assay: Watermaze behavioral studies; format: in vivo, mouse (male C57 BL/6); settings: 10 mg/kg intraperitoneally
Excerpt: The following procedures are standard techniques routinely used by those skilled in the art (Morris, R. G. M., 1981)
Male C57 BL/6 mice, 30 g body weight. Minimum 50 animals. Obtainable from The Jackson Laboratories, Bar Harbor, Rt. 3, Me. 04609.
Circular water tank made of sturdy (10 mm thick, minimum) black (or very dark, opaque) lucite or other plastic. Diameter of the tank: 1 meter; Wall height: 50 cm. The tank must have a valve connected to a large diameter (min 1.5 cm inner) water filling/draining rubber hose (min. length 10 ft).
Two targets, one made of the same plastic as the water tank (the "black target"), and one made of translucent variety. Base made of heavy lucite (1 inch thick) shaped as a square with 10 inch sides. Height between the upper surface of the base and the lower surface of the target platform: 20 cm. Target platform support: 20 cm tall, circular rod (1 inch diam.). Circular target platform, 8 cm across, made of 0.5 cm thick plastic and covered with a non-skid material (surgical tape can be used) painted either black or white (depending on the target).
Regimen "A" consists of concurrent injections of either drug(s) or saline and swimming. Injections administered in a sequence: injection--24h--swim--2h--injection--24h--swim--2h--injection . . . etc., until a stable "time to target" plateau among the controls will be reached. […]

M2 receptors = target: T1, M2 receptors (Rattus norvegicus, UniProt P10980); assay: inhibition of [^3 H]AF-DX-384 binding to M2 receptors in the rat brain
T1 construct: from tissue; host or cells: rat brain
T1 sequence (P10980 1-466): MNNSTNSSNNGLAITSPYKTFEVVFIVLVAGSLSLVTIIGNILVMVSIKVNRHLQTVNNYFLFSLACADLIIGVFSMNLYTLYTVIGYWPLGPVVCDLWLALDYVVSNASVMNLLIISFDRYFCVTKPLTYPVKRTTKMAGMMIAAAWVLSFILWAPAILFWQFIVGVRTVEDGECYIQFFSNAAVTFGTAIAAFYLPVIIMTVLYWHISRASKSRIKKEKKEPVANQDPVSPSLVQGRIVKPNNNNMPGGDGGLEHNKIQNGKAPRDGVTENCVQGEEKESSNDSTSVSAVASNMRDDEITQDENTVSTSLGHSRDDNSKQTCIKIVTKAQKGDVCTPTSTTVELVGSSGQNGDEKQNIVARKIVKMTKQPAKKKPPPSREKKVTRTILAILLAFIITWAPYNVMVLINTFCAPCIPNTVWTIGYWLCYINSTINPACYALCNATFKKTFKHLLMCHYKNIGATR
Excerpt: FIG. 5 is a graph of the inhibition of [^3 H]AF-DX-384 binding to M2 receptors in the rat brain by PDC008.004, determined as % specific [^3 H]AFDX 384 binding versus log [PDC008.004] in nM.

mice [3] = assay: behavioral observation after intraperitoneal injection; format: in vivo, mouse
[4] = system: muscarinic cholinergic receptor; settings: background statement; cited from earlier work

partition coefficient (log P) [1]	Ki (M2 receptors)	Compound	movement pattern change in watermaze (mice [2]; 10 treated vs 10 control mice)	time required to find a hidden target (target latency) after the fourth trial (mice [2]; daily injections, mice)	motor activity after a single injection (mice [3]; 10 mg/kg, intraperitoneally, 24 hour period prior to behavioral testing)	signs observed in injected animals (mice [3]; 100 mg/kg intraperitoneally)	penetration into the intracerebral space (mice [3]; inferred from very swift central cholinergic mediated events, intraperitoneal)	effect on memory function [4]
0.16	–	CCN(CC)CCN(CC(=O)N1c2ccccc2C(=O)Nc2cccnc21)CC1CCCCC1.Cl [Compound 6, 11-[[[2-(Diethylamino)ethyl]cyclohexylmethylamino]-acetyl]-5,11-dihydro-6H-pyrido [2,3-b][1,4]-benzodiazepin-6-one hydrochloride salt]	–	–	–	–	–	–
0.78±0.18	422 nM	CCN(CC)CCN(CC(=O)N1c2ccccc2C(=O)Nc2cccnc21)CC1CCCCC1 [PDC 008.004, 11-[[[2-(diethylamino)ethyl]cyclohexylmethylamino]-acetyl]-5,11-dihydro-6H-pyrido [2,3-b][1,4]-benzodiazepin-6-one]	substantial and significant (P>0.01) movement pattern change; also recorded: rapid shift from thygmotactic (wall-hugging) to center crossing and center crossing-goal oriented behavior	substantial statistically significant (P<0.05) decrease	increased motor activity	presence of dyskinesia, ataxia, and absence of flaccid paralysis	rapid penetration into the intracerebral space	–
–	–	CN1[C@@H]2C[C@@H](OC(=O)[C@H](CO)c3ccccc3)C[C@H]1[C@@H]1O[C@@H]12 [scopolamine]	–	–	–	–	–	impair memory function
